Target: T1, TbPLK^as (analogue-sensitive Trypanosoma brucei Polo-like kinase) (Trypanosoma brucei, UniProt Q57VI0, C57V/L118G)
T1 sequence (Q57VI0 1-768 C57V/L118G): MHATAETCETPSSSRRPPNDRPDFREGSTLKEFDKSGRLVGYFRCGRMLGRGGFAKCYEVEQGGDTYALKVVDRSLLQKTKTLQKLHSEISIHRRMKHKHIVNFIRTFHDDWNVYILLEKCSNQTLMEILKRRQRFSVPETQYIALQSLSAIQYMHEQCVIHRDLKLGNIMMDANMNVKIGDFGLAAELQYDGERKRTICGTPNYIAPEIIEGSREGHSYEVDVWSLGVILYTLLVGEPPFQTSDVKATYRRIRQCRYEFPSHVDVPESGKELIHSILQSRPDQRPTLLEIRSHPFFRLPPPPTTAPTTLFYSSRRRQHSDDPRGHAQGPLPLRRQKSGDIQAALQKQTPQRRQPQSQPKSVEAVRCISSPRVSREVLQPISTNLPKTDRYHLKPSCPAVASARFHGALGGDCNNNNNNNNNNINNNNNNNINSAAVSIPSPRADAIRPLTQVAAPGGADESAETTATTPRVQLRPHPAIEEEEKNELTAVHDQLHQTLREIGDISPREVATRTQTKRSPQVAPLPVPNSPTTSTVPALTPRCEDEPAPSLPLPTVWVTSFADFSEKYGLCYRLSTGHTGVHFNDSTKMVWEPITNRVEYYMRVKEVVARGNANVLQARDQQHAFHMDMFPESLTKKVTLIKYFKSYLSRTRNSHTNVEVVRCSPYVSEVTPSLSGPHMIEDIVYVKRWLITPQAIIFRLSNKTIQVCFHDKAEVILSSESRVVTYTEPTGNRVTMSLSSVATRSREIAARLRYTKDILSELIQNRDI
Format: biochemical

SMILES: Cc1cccc(Cc2nn(C(C)(C)C)c3ncnc(N)c23)c1 [3MB-PP1]
- IC50: ~250 nM

Reference: article PMC3639044 (Molecular Biology of the Cell, 2013)
